Results reported in US7388124B2 (priority 2001, dated 2008).
Values joined by “and” are separate entries in the source; they are usually repeats but may differ in a detail not shown here. Identical values can stand only once. “Also recorded” adds a separate entry of the source. Like-named read-outs stand apart in the source and are kept apart here.

Columns and labels:
Assay type in all cases: in vivo, Sprague Dawley rats
[1] = test system: rat pain model variants; test: Analgesic effect in rat neurogenic pain model variants (overall statement)
Procedure: (§1) The methods of preparation and testing were similar for all the variant pain models described in this example. Male Sprague Dawley rats initially weighing between 150 and 175 grams were housed singly. Baseline behaviors to stimulations of the paw on which the procedure was to be performed were recorded over several sessions after accommodation of 3-4 days, and the results were averaged and used as the baseline control data. The pain behaviors studied were static mechanical allodynia (e.g., light touch stimulation with von Frey fibers 4.56, 4.73, 4.93, and/or 5.07), dynamic mechanical allodynia (e.g., stimulation with moving camel hair brush), and/or mechanical hyperalgesia (e.g., pinprick stimulation).
(§2) After the baseline control data was collected, the specified procedure with a gel was performed near the chosen nerve of each variant group (see Tables 2-6 and 8-10), then the rats were tested post procedurally and intermittently for up to 77 days for behavioral changes (see Tables 2-6 and 8-11) and for their responses to substances with analgesic properties (see Tables 7 and 12).
(§3) The stimuli used to elicit pain behavior were the von Frey fibers, camel hair brush and pinprick, with 6 stimulations of each stimulus. Each variant pain model had the same sequence of stimuli with the positive responses averaged and a student T-test performed for the significance of the post procedural responses as compared to the baseline control data (see Tables 2-6 and 11); and for the post-analgesic responses as compared to the pre-analgesic behavioral data (see Tables 7 and 12).
(§4) The tunnels identified by the above studies were then used for the placement of the biocompatible gels by the chosen peripheral nerves. The gelatinous or viscous substances (i.e., the gels) placed by the peripheral nerves or nerve roots contained collagen (e.g., AVITENE® and gelatin) or hydrogels. The “collagen gel” used in the present study was composed of 0.8 grams of collagen as AVITENE® (microfibrillar collagen hemostat flour, Davol Inc., Cranston, R.I. 02920) and 0.7 grams of collagen as gelatin (Knox gelatin, Kraft Foods, Northfield, Ill. 60093) mixed with 14 cc of normal saline until homogenous. Then the collagen mixture was placed in a PYREX® bowl resting in a paper bowl and covered with a ceramic saucer, then heated for 20 seconds at full power in a microwave. The resulting viscous mixture was kept fluid in a warm water bath at 100-110° F., until used for the placement procedure. The wound hydrogels used in the present study were two types: one contains alginate (SAF-Gel® from ConvaTec of E. R. Squibb & Sons, Princeton, N.J.) and the other contains acemannan from Aloe vera L. (Carrasyn®V from Carrington Laboratories, Irving, Tex.). […] Such hydrogels are used in the care of open dermal wounds as well as in first and second degree burns since they provide a closed moist environment for wound healing.
(§5) The rats were anesthesized with 1.5% to 2% isoflurane for the percutaneous kinesthetic placement of the above “gels” by the specified nerves. Using an angled 23 gauge thin wall 1″ needle, approximately 0.1 cc-0.2 cc of gel was placed percutaneously with kinesthetic technique in the anatomically defined fascial tunnels of the chosen peripheral nerves as described below.
(§6) The doses were given intraperitoneally (I.P.) and behavioral stimulus testing began 40-80 minutes after the dose. The student's t-test (p<0.05) was performed for determining the significance of changes in behaviors associated with pain after the analgesic was administered.

[2] = test system: rat pain model variants; conditions: for von Frey F 4.93 # ST[…]-ANALGESIC: of 6
Procedure: Male Sprague Dawley rats initially weighing between 150 and 175 grams were housed singly. […] The pain behaviors studied were static mechanical allodynia (e.g., light touch stimulation with von Frey fibers 4.56, 4.73, 4.93, and/or 5.07), dynamic mechanical allodynia (e.g., stimulation with moving camel hair brush), and/or mechanical hyperalgesia (e.g., pinprick stimulation).
as §2
The stimuli used to elicit pain behavior were the von Frey fibers, camel hair brush and pinprick, with 6 stimulations of each stimulus.
as §4, §5, §6

[3] = test system: rat pain model variants; test: Dynamic mechanical allodynia (camel hair brush) in rat pain model variants; conditions: Ethosuximide 200 mg/kg (IP); n=12 rats; Pre Avg 4.17; p=1.1E-4
Procedure: as §1, §2, §3
The tunnels identified by the above studies were then used for the placement of the biocompatible gels by the chosen peripheral nerves. The gelatinous or viscous substances (i.e., the gels) placed by the peripheral nerves or nerve roots contained collagen (e.g., AVITENE® and gelatin) or hydrogels. […]

[4] = test system: rat pain model variants; test: Mechanical hyperalgesia (pinprick) in rat pain model variants; conditions: for Pinprick # STIMULATIONS POST-ANALGESIC: of 6; for Pinprick # STIMULATIONS POST-ANALGESIC, Total: total of 5 rats, pre total 30
Procedure: as §1, §2, §3, §4, §5, §6

[5] = Ethosuximide 100 mg/kg IP, 1 rat tibial n. with Acemann hydrogel, pre 6
[6] = Ethosuximide 100 mg/kg IP, 1 rat tibial n. with Alginate hydrogel, pre 6

CCC1(C)CC(=O)NC1=O (stereo not shown) [Ethosuximide, ethosuximide]
analgesic effect (significance) ([1]; ethosuximide 200 mg/kg IP, Table 12, within 40-80 minutes): significant analgesic effects
von Frey F 4.93 # ST[…]-ANALGESIC ([2]; Ethosuximide 100 mg/kg IP, 1 rat saphenous n. with Avitene collagen, pre 4): 0
von Frey F 4.93 # ST[…]-ANALGESIC [2, 5]: 0
von Frey F 4.93 # ST[…]-ANALGESIC [2, 6]: 0
von Frey F 4.93 # ST[…]-ANALGESIC ([2]; Ethosuximide 100 mg/kg IP, single rats sciatic n. with Alginate hydrogel (two rats, pre 3 and 6)): 0
von Frey F 4.93 # ST[…]-ANALGESIC, Total ([2]; Ethosuximide 100 mg/kg IP, total of 5 rats, pre total 25, pre vs post p=1.43E-3): 0
Post Avg, Average Positive stimulations out of 6 total, Stim A vF 4.56 ([2]; Ethosuximide 200 mg/kg (IP), all rats of Tables 8-10, n=12, Pre Avg 1.83, p=2.9E-3): 0.5
Post Avg, Average Positive stimulations out of 6 total, Stim B vF 4.93 ([2]; Ethosuximide 200 mg/kg (IP), n=12 rats, Pre Avg 2.92, p=8.4E-5): 0.58
Post Avg, Average Positive stimulations out of 6 total, Stim C vF 5.07 ([2]; Ethosuximide 200 mg/kg (IP), n=12 rats, Pre Avg 3.92, p=1.4E-5): 0.83
Post Avg, Average Positive stimulations out of 6 total, Stim S Brush [3]: 1.17
Pinprick # STIMULATIONS POST-ANALGESIC ([4]; Ethosuximide 100 mg/kg IP, 1 rat saphenous n. with Avitene collagen, pre 6): 1
Pinprick # STIMULATIONS POST-ANALGESIC [4, 5]: 0
Pinprick # STIMULATIONS POST-ANALGESIC [4, 6]: 2
Pinprick # STIMULATIONS POST-ANALGESIC ([4]; Ethosuximide 100 mg/kg IP, single rats sciatic n. with Alginate hydrogel (two rats, pre 6 and 6)): 0 and 1
Pinprick # STIMULATIONS POST-ANALGESIC, Total ([4]; Ethosuximide 100 mg/kg IP, pre vs post p=1.6E-4): 4
Post Avg, Average Positive stimulations out of 6 total, Stim PP Pin Prick ([4]; Ethosuximide 200 mg/kg (IP), n=12 rats, Pre Avg 5.25, p=1.4E-8): 1.75

O=C(c1ccccc1)c1ccc2n1CCC2C(=O)O (stereo not shown) [Ketorolac, ketorolac]
analgesic effect (significance) ([1]; ketorolac 10% 0.1 cc IP, Table 7): no significant analgesic effect; also recorded: no significant analgesic properties
Pinprick # STIMULATIONS POST-ANALGESIC ([4]; Ketorolac 10% 0.1 cc IP, 1 rat peroneal n. with Avitene collagen, pre 6): 6
Pinprick # STIMULATIONS POST-ANALGESIC ([4]; Ketorolac 10% 0.1 cc IP, 1 rat tibial n. with Acemannan hydrogel, pre 6): 6
Pinprick # STIMULATIONS POST-ANALGESIC ([4]; Ketorolac 10% 0.1 cc IP, 1 rat tibial n. with Alginate hydrogel, pre 6): 6
Pinprick # STIMULATIONS POST-ANALGESIC ([4]; Ketorolac 10% 0.1 cc IP, single rats sciatic n. with Alginate hydrogel (two rats, pre 6 and 6)): 5 and 6
Pinprick # STIMULATIONS POST-ANALGESIC, Total ([4]; Ketorolac 10% 0.1 cc IP, pre vs post p=3.7E-1): 29
